# Where “and” joins values, the source holds several entries; their conditions need not be identical. Equal entries are not always repeated.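 Five compound concentrations were applied to cells in 96-well plates for 48 hours; endpoints were derived by simple linear interpolation of the resulting dose-response curve. GI50 = concentration required for 50% inhibition of growth. Definition used: TGI = concentration required for complete inhibition of growth.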
# Experiments:
# Test in all cases: DTP human tumour cell line panel, 48 h
# A549 NSCLC = test system: A549 NSCLC
# DU-145 prostate = test system: DU-145 prostate
# HCT-15 colon = test system: HCT-15 colon
# IGROV1 ovarian = test system: IGROV1 ovarian
# KM12 colon = test system: KM12 colon
# MDA-MB-435 = test system: MDA-MB-435
# NCI-H522 lung = test system: NCI-H522 lung
# OVCAR-8 ovarian = test system: OVCAR-8 ovarian
# PC-3 prostate = test system: PC-3 prostate
# SK-OV-3 ovarian = test system: SK-OV-3 ovarian
SMILES,GI50 (A549 NSCLC),TGI (A549 NSCLC),GI50 (DU-145 prostate),TGI (DU-145 prostate) [µM],GI50 (HCT-15 colon),TGI (HCT-15 colon) [µM],GI50 (IGROV1 ovarian),TGI (IGROV1 ovarian) [µM],GI50 (KM12 colon),TGI (KM12 colon) [µM],GI50 (MDA-MB-435),TGI (MDA-MB-435) [µM],GI50 (NCI-H522 lung),TGI (NCI-H522 lung),GI50 (OVCAR-8 ovarian),TGI (OVCAR-8 ovarian),GI50 (PC-3 prostate),TGI (PC-3 prostate) [µM],GI50 (SK-OV-3 ovarian),TGI (SK-OV-3 ovarian)
Cc1ccc(-c2n[nH]c(=O)c3noc(-c4ccc(C)cc4)c23)cc1,0.74 µM,> 100 µM,2.82 µM,15.2,0.651 µM,> 100,1.89 µM,28.6,0.713 µM,> 100,0.235 µM,0.651,0.411 µM,4.98 µM,1.82 µM,27.7 µM,2.07 µM,> 100,1.51 µM,11.5 µM
CN(C(=O)CNC(=O)/C=C/c1cccc(Cl)c1)C1CCS(=O)(=O)CC1,> 100 µM,> 100 µM,0.47 µM,> 100,0.819 µM,> 100,3.05 µM,> 100,7.99 µM,> 100,2.1 µM,> 100,1.17 µM,> 100 µM,> 100 µM,> 100 µM,> 100 µM,> 100,18.2 µM,> 100 µM
CCN(CC)Cc1cc(Nc2c3ccccc3nc3cc(Cl)ccc23)ccc1O,1.36 µM,4.26 µM,2.63 µM,9.69,3.49 µM,17,1.65 µM,3.55,1.59 µM,3.77,1.65 µM,3.34,1.12 µM,2.56 µM,1.18 µM,3.83 µM,1.59 µM,3.26,2.01 µM,3.86 µM
Cn1cc(-c2nc(N[C@@H]3CCCC[C@@H]3N)c(F)c3c2C(=O)NC3)cn1,6.47 µM and 9.22 µM,75.5 µM and 81.1 µM,11.5 µM and 14.4 µM,> 100,12 µM and 13.3 µM,> 100,5 µM and 5.65 µM,> 68.9,0.458 µM and 0.452 µM,> 100,5.64 µM and 7.4 µM,> 100,12.8 µM and 13.1 µM,66.5 µM and > 91.1 µM,10.8 µM and 12.4 µM,66.1 µM and > 75.3 µM,9.43 µM and 13.3 µM,> 100,4.06 µM and 3.77 µM,40.1 µM and 43.8 µM
COc1cccc(NC2=C(Cl)C(=O)N(Cc3ccc(Cl)cc3)C2=O)c1,2.67 µM,26.8 µM,3.8 µM,12.1,1.05 µM,8.62,11.9 µM,> 37.4,2.34 µM,30.5,0.234 µM,1.61,4.76 µM,22.9 µM,1.82 µM,> 43.1 µM,1.68 µM,10.4,8.09 µM,60.6 µM
O=C(/C=C/c1cccc2ccccc12)Nc1ncc(Cc2ccccc2)s1,1.32 µM,> 66.3 µM,1.61 µM,> 100,0.507 µM,> 100,1.27 µM,> 87.3,0.866 µM,> 100,0.247 µM,0.725,0.703 µM,> 32.8 µM,1.55 µM,> 100 µM,1.01 µM,> 100,1.71 µM,> 29.9 µM
